According to patent US8076144B2, “Protocol for risk stratification of ischemic events and optimized individualized treatment” (Cora Healthcare, Inc., priority 1999, dated 2011):

System: whole blood clot formation
Assay: Ecarin-activated TEG hemostasis analysis of recalcified sodium-citrated samples taken before and after in vivo anticoagulation therapy
Parameters: species or system human
Conditions: 14b
Text: One exemplary protocol utilizes a sample, e.g., sample 13, that is obtained from a subject prior to administration of the anticoagulation therapy. Another sample is obtained at a first time period following administration of an anticoagulation therapy such as a direct thrombin inhibitor therapy like bivalirudin, heparin or warfarin. Each sample may be obtained into sodium citrate.
The sodium-citrated samples are recalcified, and an additional reagent is provided such as a prothrombin activator such as ecarin. The hemostasis analyzer 10 is used to measure the time to initial clot formation, R. FIG. 13 illustrates data for a sample of subjects showing time to initial clot formation R before in vivo administration of the anticoagulation therapy and after in vivo administration of the anticoagulation therapy. FIGS. 14a and 14b illustrate tracings and, respectively, showing a typical set of hemostasis parameter data before in vivo administration of the anticoagulation therapy and after in vivo administration of the anticoagulation therapy. […] Importantly, there exists correlation between the delay in initial clot formation and the dosing of the anticoagulation therapy. […]

Question: Which results are given for bivalirudin?
Answer: delay in onset of clot formation (time to initial clot formation R) (samples from subjects before vs after in vivo administration, recalcified citrated blood with ecarin, FIGS. 13, 14a): direct relationship to bivalirudin dosing; rate of clot formation α, clot strength MA and lysis LY30 (tracings before and after in vivo administration, FIGS. 14a): within expected norms
